{"source": "patent US11419865B2", "about": "“Method for inducing a sustained immune response” (Cytocom Inc., priority 2016, dated 2022)", "key": {"[1]": {"system": "Autoimmune Hepatitis-Type 1 patient", "experiment": "Autoimmune Hepatitis-Type 1 case report", "settings": "4.5 mg nightly"}, "[2]": {"system": "CRPS patients"}, "[3]": {"system": "systemic lupus patients", "experiment": "systemic lupus case reports", "assay_type": "in vivo, human", "excerpt": "[…]. […] […].\nPsoriasis mostly resolved."}, "[4]": {"system": "patients with primary progressive multiple sclerosis (PPMS)", "experiment": "six month phase II multicenter pilot trial in primary progressive multiple sclerosis, 40 patients", "assay_type": "in vivo, human", "experimental": "[…]. The primary end points were safety and tolerability. Secondary outcomes were efficacy on spasticity, pain, fatigue, depression, and quality of life. Clinical and biochemical evaluations were serially performed. Protein concentration of beta-endorphins (BE) and mRNA levels and allelic variants of the mu-opioid receptor gene (OPRM1) were analyzed."}, "[5]": {"system": "ovarian cancer cells", "experiment": "ovarian cancer cells treated with different dosing regimens of naltrexone", "assay_type": "cell-based", "experimental": "[…]. They also prevent the adhesion of cancer cells to bone marrow stromal cells and thereby inhibit the enhanced secretion of migratory factors, such as interleukin (IL)-6, TNF-α, and vascular endothelial growth factor. In research experiments, ovarian cancer cells were treated with either water as the control or different dosing regimens of naltrexone to replicate high dose versus Immediate release dosing of naltrexone."}, "[6]": {"system": "A549 (lung) and HCT116 (CRC)", "experiment": "continuous 48 h exposure, lung and CRC cells"}, "[7]": {"system": "HIV", "experiment": "naltrexone as adjunct therapy, 50 HIV/AIDS patients in Africa with standard of care", "assay_type": "in vivo, human", "excerpt": "Naltrexone as an adjunct therapy with HIV/AIDS patients. […] HIV disease is associated with a new constellation of problems, generally referred to as “non-AIDS morbidity”, and, in the popular press, “premature aging. […] at risk for developing a number of non-AIDS conditions, including cardiovascular disease, cancer, kidney disease, liver disease, osteopenia/osteoporosis and neurocognitive disease (collectively referred to as “serious non-AIDS events”). Malignancies associated with infections such as human papilloma virus (including uro-genital and head and neck cancers), Epstein Barr Virus (including Hodgkins disease), and hepatitis B and C (hepatocellular carcinoma), are also relatively common in HIV-infected adult. […] Subtle elevations in many of these biomarkers are associated with dramatic increases in the risk of subsequent disease, including all-cause mortality For example, as compared to a well-matched uninfected population, treated HIV-infected adults have approximately 50 to 100% higher levels of the inflammatory cytokine interleukin-6 (IL-6)^(32). […] Risk factors for impaired CD4 T-cell recovery include low pre-treatment CD4+ T cell count nadir, co-infection with other viruses such as hepatitis C, older age, and perhaps viral factors (24). […]"}, "[8]": {"system": "patients diagnosed with fibromyalgia", "experiment": "open label single center study, twenty-five fibromyalgia patients", "assay_type": "in vivo, human", "settings": "4.5 mg"}, "[9]": {"system": "diabetic neuropathy patient", "experiment": "diabetic neuropathy case report", "assay_type": "in vivo, human", "excerpt": "person, diagnosed with diabetic neuropathy for the last six years was prescribed one or two tablets every four to six hours as needed for pain. Patient takes between 4 to 8 tablets a day."}, "[10]": {"system": "MS patients", "experiment": "multiple sclerosis case reports", "assay_type": "in vivo, human"}, "[11]": {"system": "autistic children, lymphocyte subsets", "experiment": "behavioral and immunological assessment in autism during double-blind naltrexone treatment", "assay_type": "in vivo, human", "excerpt": "Opioid-immune interactions in autism: behavioral and immunological assessment during a double-blind treatment with naltrexone.\nChanges in natural killer cells and activity were inversely related to plasma beta-endorphin levels."}}}
{"smiles": "O=C1CC[C@@]2(O)[C@H]3Cc4ccc(O)c5c4[C@@]2(CCN3CC2CC2)[C@H]1O5", "note": "[Immediate release naltrexone, naltrexone]", "values": [{"measurement": "side effects, person, Autoimmune Hepatitis-Type 1", "setting": "[1]", "value": "vivid dreams and mild indigestion in the first two weeks"}, {"measurement": "pain scores NRS (out of 10), person one, CRPS and EDS", "setting": "[2]; 3 mg once a day, then 4.5 mg per day, from (7-10)/10", "value": "3-5"}, {"measurement": "allodynia and sensitivity, person one, CRPS", "setting": "[2]; 3 mg then 4.5 mg per day", "value": "decrease in allodynia, as well as a decrease in sensitivity to touch and temperature change"}, {"measurement": "dystonia, initial treatment, person one, CRPS", "setting": "[2]; 3 mg then 4.5 mg per day, before surgery", "value": "no effect on the dystonia"}, {"measurement": "side effects, person three, CRPS", "setting": "[2]; 4.5 mg per day", "value": "No side effects"}, {"measurement": "average pain on the Numeric Rating Scale (NRS), person three, CRPS", "setting": "[2]; 4.5 mg per day at night, before 8 to 10", "value": "5 to 6"}, {"measurement": "requirements for intravenous ketamine infusions, person three, CRPS", "setting": "[2]; 4.5 mg per day, by March of 2012, 6 week intervals", "value": "not as frequent"}, {"measurement": "walking, person three, CRPS", "setting": "[2]; 4.5 mg per day, cane used continuously since 2006", "value": "able to walk without a cane"}, {"measurement": "dystonic spasms, person three, CRPS", "setting": "[2]; 4.5 mg per day, within 2 months", "value": "dystonic spasms discontinued"}, {"measurement": "post-operative pain NRS (out of 10), person one, CRPS", "setting": "[2]; 3 weeks after resuming drug", "value": "4-6"}, {"measurement": "side effects, person one, CRPS", "setting": "[2]; 18 months", "value": "No side effects"}, {"measurement": "fixed dystonia at cast removal, person one, CRPS", "setting": "[2]; after ankle reinforcement surgery, on drug", "value": "remission of the leg's fixed dystonia"}, {"measurement": "CRPS symptoms, person one", "setting": "[2]; maintained for 18 months", "value": "CRPS symptoms have resolved completely"}, {"measurement": "MRSA recurrence, person, systemic lupus", "setting": "[3]; 1.5 mg", "value": "No recurrence of MRSA in 8 years"}, {"measurement": "tolerability, person, systemic lupus", "setting": "[3]; 1.5 mg starting dose", "value": "unable to take it due to insomnia and pruritis"}, {"measurement": "mobility, person, Systemic Lupus", "setting": "[3]; 3 mg from March 2013, within three weeks", "value": "improved mobility"}, {"measurement": "skin, person, Systemic Lupus", "setting": "[3]; 3 mg increasing to 4.5 mg, within 4 months", "value": "skin cleared almost 100%"}, {"measurement": "hospital stays, person, Systemic Lupus", "setting": "[3]; 4.5 mg", "value": "no hospital stays since March of 2013"}, {"measurement": "disease status, person, systemic lupus", "setting": "[3]; liquid form, 0.1 mg increased weekly to 1.5 mg, with supplements, diet", "value": "Lupus, in remission"}, {"measurement": "Neurological disability", "setting": "[4]; 40 patients", "value": "progressed in only one patient"}, {"measurement": "dropouts and major adverse events", "setting": "[4]; 40 patients", "value": "Five dropouts and two major adverse events occurred"}, {"measurement": "spasticity", "setting": "[4]; end of the six month trial", "value": "significant reduction of spasticity"}, {"measurement": "beta-endorphins (BE) concentration", "setting": "[4]; human, in vivo", "value": "increased during the trial"}, {"measurement": "safety and tolerability", "setting": "[4]; human, in vivo", "value": "safe and well tolerated"}, {"measurement": "growth of cancer cells", "setting": "[5]; Immediate release low or short-term dosing, control water", "value": "growth of cancer cells was slowed"}, {"measurement": "growth of cancer cells", "setting": "[5]; high dose of naltrexone", "value": "cancer cells were stimulated and grew faster"}, {"measurement": "effect on A549 and HCT116", "setting": "[6]", "value": "no effect"}, {"measurement": "inflammatory cytokine and Th1/Th2 balance", "setting": "[7]; adjunct to standard of care (ART)", "value": "Secreased inflammatory cytokine and a shift from Th1 (pro-inflammatory) to Th2 (anti-inflammatory)"}, {"measurement": "opportunistic infection and quality of life", "setting": "[7]; adjunct to standard of care, long term", "value": "reduction in opportunistic infection and a higher quality of live"}, {"measurement": "average improvement in FIQR in eleven patients (50%)", "setting": "[8]", "value": 41, "unit": "%"}, {"measurement": "additional benefits, diabetic neuropathy", "setting": "[9]; 4.5 mg", "value": "resolutions of RLS"}, {"measurement": "pain medication use, diabetic neuropathy", "setting": "[9]; 4.5 mg from March of 2015, within 3 days", "value": "cut down the number of pills in half"}, {"measurement": "pain medication use, diabetic neuropathy", "setting": "[9]; 4.5 mg, within 8 weeks", "value": "stopped all pain medication"}, {"measurement": "first three months, person, Secondary Progressive MS", "setting": "[10]; 1.5 mg at bedtime increasing to 3 mg from July of 2005", "value": "no real improvement in the first three months accept no flair of MS"}, {"measurement": "disease course, person, relapsing remitting MS", "setting": "[10]; 1.5 mg increasing to 4.5 mg nightly with progesterone, estriol, Cortef", "value": "back at work for 5 years without an exacerbation"}, {"measurement": "MRI, person, secondary-progressive multiple sclerosis (SPMS)", "setting": "[10]; 1.5 mg then 3 mg from July of 2009, January of 2011", "value": "MRI showed reduced plaque and lesion size"}, {"measurement": "disease course, person, fast deteriorating M.S.", "setting": "[10]; 1.5 mg, 3 mg, then 4.5 mg for seven months", "value": "the disease has stabilized and the progressive deterioration has stopped"}, {"measurement": "disease course, person, M.S. of 35 years", "setting": "[10]; 3 mg for 30 days then 4.5 mg at bedtime, over three months", "value": "regained their ability to see and walk and their cognitive ability improved as well"}, {"measurement": "mobility, person four, Relapsing Remitting MS, wheelchair bound", "setting": "[10]; 3 mg nightly from July 2004", "value": "walking again with a cane for assistance within 10 days"}, {"measurement": "relapses, person two, Relapsing Remitting MS", "setting": "[10]; 4.5 mg at bedtime since 2002", "value": "has not had a one relapse"}, {"measurement": "side effects, person four, Relapsing Remitting MS", "setting": "[10]; 4.5 mg nightly from August of 2004", "value": "minimal side effects some insomnia"}, {"measurement": "relapses, person four, Relapsing Remitting MS", "setting": "[10]; 4.5 mg nightly, last update 2010", "value": "no relapses"}, {"measurement": "MRI, person two, Relapsing Remitting MS", "setting": "[10]; 4.5 mg, over the last 8 years", "value": "no progression of the disease"}, {"measurement": "mobility, person, Secondary Progressive MS", "setting": "[10]; months 3 to 6, later 4.5 mg", "value": "upgraded from wheelchair to cane"}, {"measurement": "T-cytotoxic-suppressor (CD4−CD8+)", "setting": "[11]", "value": "significant reduction"}, {"measurement": "T-helper-inducers (CD4+CD8−)", "setting": "[11]", "value": "significant increase"}]}
